Assay results from patent publication USRE40667E1, “[R-(R*R*)]-2-(4-fluorophenyl)-β,δ-dihydroxy-5-(1-methylethyl-3-phenyl-4-[(phenylamino)carbonyl]-1H-pyrrole-1-heptanoic acid, its lactone form and salts thereof” (Warner-Lambert Company LLC, priority 1989, dated 2009).

System: biosynthesis of cholesterol
Experiment: CSI screen (cholesterol synthesis inhibition) as disclosed in U.S. Pat. No. 4,681,893
Assay type: biochemical
Description: The compounds according to present invention and especially according to the compound of the formula I inhibit the biosynthesis of cholesterol as found in the CSI screen that is disclosed in U.S. Pat. No. 4,681,893 which is now also incorporated by reference therefor. The CSI data of the compound I, its enantiomer the compound II and the racemate of these two compounds are as follows: […]

Compound	IC50 [nM]
CC(C)c1c(C(=O)Nc2ccccc2)c(-c2ccccc2)c(-c2ccc(F)cc2)n1CC[C@@H](O)C[C@@H](O)CC(=O)O (single isomer, unassigned) [[R—(R*R*)] isomer, [R-(R*,R*)]-2-(4-fluorophenyl)-β,δ-dihydroxy-5-(1-methylethyl)-3-phenyl-4-[(phenylamino)carbonyl]-1H-pyrrole-1-heptanoic acid]	4.4
CC(C)c1c(C(=O)Nc2ccccc2)c(-c2ccccc2)c(-c2ccc(F)cc2)n1CCC(O)CC(O)CC(=O)O (single isomer, unassigned) [[S—(R*R*)] isomer]	440
